In article PMC7505085 (ACS chemical biology, 2015):
Where two headings read alike, the source gives them in different places.

How the values were obtained:
[1] = tested on: T98G cells; test: cytotoxicity in mammalian cells; format: cell-based; details: read-out: IC50 mammalian cells
[2] = tested on: T. b. brucei; test: growth inhibitory activity against axenic T. b. brucei parasites; format: cell-based, Trypanosoma brucei; details: highest concentration tested 10 μM; for IC50: read-out: IC50 T. b. brucei
[3] = tested on: HeLa cells; test: cytotoxicity in mammalian cells; format: cell-based; details: read-out: IC50 mammalian cells
[4] = HAT treatment; cited from earlier work

SMILES | IC50 [1] | antitrypanosomal activity (in words) [2] | IC50 [2] | IC50 ([2]; listed as B) | IC50 [3] | drug-induced death rate [4]
CC1=CC=CC[C@H](C)NC(=O)C=CC=CC=C[C@H](C)[C@@H](O)[C@H](O)[C@@H](O)C[C@@H](O)/C=C\C=CC(C)=C1 [Lobosamide A] | > 66 µM | sub-micromolar | 0.8 µM | – | – | –
CC1=CC=CC[C@H](C)NC(=O)C=CC=CC=C[C@H](C)[C@@H](O)[C@H](O)[C@@H](O)C[C@@H](O)/C=C/C=CC(C)=C1 [Lobosamide B] | > 66 µM | – | 6.1 µM | < 10 µM | – | –
CC1=CC=CC[C@H](C)NC(=O)C=CC=CC=C[C@H](C)[C@@H](O)C[C@@H](O)C[C@@H](O)/C=C\C=CC(C)=C1 [Lobosamide C] | – | inactive | > 10 µM | – | > 33 µM | –
CC1=CC=CC=CC[C@H](C)NC(=O)C=CC=CC=CC[C@@H](O)[C@H](O)[C@@H](O)C[C@@H](O)C=CC=C1 [Mirilactam A] | – | lack of activity | > 10 µM | – | – | –
CC1=CC=CC=CC[C@H](C)NC(=O)C=CC=CC=CC[C@@H](O)C[C@@H](O)C[C@@H](O)C=CC=C1 [Mirilactam B] | – | – | > 10 µM | – | > 33 µM | –
Nc1nc(N)nc(Nc2ccc([As]3SCC(CO)S3)cc2)n1 (centres unmarked) [melarsoprol] | – | – | – | – | – | 5%
